A short description of series [1]: Solubility in milk related vehicles, previous study (Li et al., 2022). Format: physicochemical. The note with it: RT; data ref 6.
For series [2] the following is noted: cited from earlier work; for Solubility in Water at 25°C: descriptions and ranges based on USP definitions.
The conditions of series [3]: cited from earlier work.
Series [4] has as its system plasma protein. The note with it: cited from earlier work.
Series [5] in a line: Solubility assessment in milk vehicles and 10 mM sodium phosphate buffer pH 6.8, HPLC analysis. The series is classed as physicochemical. The settings on record: for USP solubility classification: across tested media; for solubility at 60 min: thermodynamic from solid. On the procedure: Solubility assessment was performed in all milk vehicles listed above. A 10 mM sodium phosphate buffer pH 6.8 was also included as a control. For each solubility sample, an excess amount of drug powder was weighed in a 20-mL glass vial. A suitable volume of the vehicle, pre-equilibrated to the desired temperature, was added to the drug powder. The samples were stirred for 60 minutes at 38°C or 20°–25°C [room temperature (RT)] prior to processing. The temperature of 38°C reflects the rectal temperature the healthy adult cow, 38°C [17].
Upon completion of this portion of the test procedure, approximately 2 mL of the solubility sample was passed through the Phenex-GF 1.2 μm filter to remove the excess drug solid. The filtration and solvent extraction steps were carried out immediately for each sample after the solubility testing was completed. All supplies used in the filtration were pre-equilibrated at the corresponding temperature. […] An aliquot of 0.5 mL filtrate was accurately transferred to a microcentrifuge tube followed by the addition of 1 mL extraction solvent. The extraction solvent was 0.1% TFA in acetonitrile (mobile phase channel B). The mixture was then centrifuged at 10,000 rpm, and about 1 mL of the supernatant was passed through a Phenex-RC 0.45 μm filter. The filtrate was collected in an HPLC autosampler vial and analyzed by the HPLC method described below.
A gradient HPLC method, described in Table 5, was used to analyze the concentration of all drug solubility samples after treatment.

For series [6] the following is noted: cited from earlier work. The source holds these as a separate data set.
On the set-up of series [7]: method as in earlier work. The note with it: cited from earlier work.
[8] abbreviates: room temperature, expressed as free form of cephapirin.

Structures are written as SMILES. Values after ≈ are worked out from the molar mass of the structure shown. Where a name gives a salt, the structure may show the parent alone. Read-outs that look alike come from different tables or passages of the source. Marks after values point to notes of the source that are not given here.

In the case of `CC(=O)Nc1ccc(O)cc1` [Acetaminophen], in series [1], the “Ratio of solubility, Reconstituted whole milk versus raw milk” value is given as 1.01; the “Ratio of solubility, Skim milk versus raw milk” value is reported as 1.08; the “Ratio of solubility, Whole milk versus raw milk” value was determined as 1.05; the “Ratio of solubility, pH 6.8 buffer versus raw milk” value is listed as 1.05. Besides, the “Solubility in Water at 25°C” value in series [2] is listed as “Sparingly Soluble (10–33 mg/mL)”. Further, the “Ionization state at pH 7” value in series [3] was “Neutral”. The “Plasma Protein Binding” value in series [4] is 20–25%.
The pKa is the negative logarithm of the acid dissociation constant. As for `C[C@@H]1C[C@H]2[C@@H]3CCC4=CC(=O)C=C[C@]4(C)[C@@]3(F)[C@@H](O)C[C@]2(C)[C@@]1(O)C(=O)CO` [Dexamethasone], in series [1], the “Ratio of solubility, Reconstituted whole milk versus raw milk” value was 1.16; the “Ratio of solubility, Skim milk versus raw milk” value came out at 1.04; the “Ratio of solubility, Whole milk versus raw milk” value came out at 1.08; the “Ratio of solubility, pH 6.8 buffer versus raw milk” value is listed as 0.64. In series [2], the “Solubility in Water at 25°C” value was “Practically Insoluble (≤ 0.1 mg/mL)”. Further, the pKa result in series [3] (in words) was “Non-ionizable”. In addition, the “Ionization state at pH 7” value in series [3] is on record as “Neutral”. For the same compound, in series [4], the “Plasma Protein Binding” value was around 77%.
For `CC(=O)OCC1=C(C(=O)O)N2C(=O)[C@@H](NC(=O)CSc3ccncc3)[C@H]2SC1.CC(=O)OCC1=C(C(=O)O)N2C(=O)[C@@H](NC(=O)CSc3ccncc3)[C@H]2SC1.c1ccc(CNCCNCc2ccccc2)cc1` [Cephapirin Benzathine, Cephapirin benzathine], the “Solubility, Raw Milk” value in series [5] (38°C, expressed as free form of cephapirin) was 0.706 ± 0.021 mg/mL. The “Solubility, Reconstituted Whole Milk Powder (Nestle), Lot 1” value in series [5] (38°C, milk powder Lot 1, expressed as free form of cephapirin) is on record as 0.740 ± 0.005 mg/mL. The “Solubility, Reconstituted Whole Milk Powder (Nestle), Lot 2” value in series [5] (38°C, milk powder Lot 2, expressed as free form of cephapirin) worked out at 0.762 ± 0.028 mg/mL. Besides, in series [5], the USP solubility classification entry was “very slightly soluble”. In series [5] (setting [8]), the “Solubility, Raw Milk” value stood at 0.476 ± 0.003 mg/mL; the “Solubility, Reconstituted Whole Milk Powder (Nestle)” value was 0.508 ± 0.006 mg/mL; the “Solubility, Skim Milk” value was 0.460 ± 0.007 mg/mL; the “Solubility, Whole Milk” value stood at 0.509 ± 0.010 mg/mL. For the same compound, the “Solubility, pH 6.8 buffer (control)” value in series [5] (setting [8]) was found to be 0.352 ± 0.003 mg/mL. Further, in series [2] (0.1 N HCl), the “Solubility in 0.1 N HCl (descriptive)” value is “soluble”. Further, the “Solubility in alcohol (descriptive)” value in series [2] (alcohol) is given as “freely soluble”. Moreover, in series [2] (ether), the “Solubility in ether (descriptive)” value was “practically insoluble”. The “Solubility in toluene (descriptive)” value in series [2] (toluene) is recorded as “practically insoluble”. Besides, in series [2], the “Solubility in water (descriptive)” value is listed as “practically insoluble”.
As usually defined, the Log P is a log measure of how a compound divides between an organic and an aqueous phase. With `C[C@]12C=CC(=O)C=C1CC[C@@H]1[C@@H]2[C@@H](O)C[C@@]2(C)[C@H]1CC[C@]2(O)C(=O)CO` [Prednisolone], the pKa entry in series [3] (in words) is recorded as “Non-ionizable”. In addition, the “Ionization state at pH 7” value in series [3] was “Neutral”. In addition, the log partition coefficient (Log P) in series [6] was ~ 1.6. Further, the “Plasma Protein Binding” value in series [4] is reported as 60–90%.
As a reminder, the solubility is the dissolved amount per volume that the medium holds. Take `CC(=O)OCC1=C(C(=O)O)N2C(=O)[C@@H](NC(=O)CSc3ccncc3)[C@H]2SC1` [Cephapirin Sodium, Cephapirin sodium]: the solubility at 60 min was above 200 mg/mL in series [5] (10 mM sodium phosphate buffer, pH 6.8, aqueous buffer, room temperature, expressed as free form of cephapirin, read-out: Solubility, pH 6.8 buffer (control)); above 500 mg/mL in series [5] (bovine, 38 °C, plasma or biological fluid, reconstituted and raw milk, read-out: Solubility in reconstituted and raw milk); above 350 mg/mL in series [5] (bovine, milk vehicles (all tested media except the pH 6.8 buffer), plasma or biological fluid, all tested media with the exception of the pH 6.8 aqueous buffer, read-out: Solubility in the tested media); above 500 mg/mL in series [5] (bovine, raw milk, plasma or biological fluid, 38°C, expressed as free form of cephapirin, read-out: Solubility, Raw Milk); above 350 mg/mL in series [5] (bovine, raw milk, plasma or biological fluid, room temperature, expressed as free form of cephapirin, read-out: Solubility, Raw Milk); above 350 mg/mL in series [5] (bovine, reconstituted whole milk powder (Nestle), plasma or biological fluid, room temperature, expressed as free form of cephapirin, read-out: Solubility, Reconstituted Whole Milk Powder (Nestle)). Further, the solubility at 60 min in series [5] (bovine, skim milk, plasma or biological fluid, room temperature, expressed as free form of cephapirin, read-out: Solubility, Skim Milk) was above 350 mg/mL; in series [5] (bovine, whole milk, plasma or biological fluid, room temperature, expressed as free form of cephapirin, read-out: Solubility, Whole Milk), above 350 mg/mL; in series [5] (reconstituted whole milk powder (Nestle), plasma or biological fluid, 38°C, expressed as free form of cephapirin, read-out: Solubility, Reconstituted Whole Milk Powder (Nestle)), above 500 mg/mL. In addition, in series [5], the USP solubility classification entry is on record as “freely soluble”. Further, the “Solubility in most organic solvents (descriptive)” value in series [2] (most organic solvents) is listed as “insoluble”. Also, the “Solubility in water (descriptive)” value in series [2] is “very soluble”.
As to `CN(C)CCC=C1c2ccccc2CCc2ccccc21` [Amitriptyline HCl], the “Solubility in Water at 25°C” value in series [2] is recorded as “Freely Soluble (100–1000 mg/mL)”. Moreover, the pKa in series [3] (base) is 9.45 (base). Moreover, the “Ionization state at pH 7” value in series [3] is listed as “Positively charged”. Besides, the entries for the “Log P” value in series [6] (free base) and in series [6] (pH 7.4) were 5.0 and 3.0, respectively. The “Plasma Protein Binding” value in series [4] was ~ 95%.
As to `CN1C(C(=O)Nc2ccccn2)=C(O)c2ccccc2S1(=O)=O` [Piroxicam], the “Solubility in aqueous buffer” value in series [7] (aqueous buffer) was 0.287 ± 0.019 mg/mL (≈ 866 µM). In addition, the “Solubility in skim milk” value in series [7] (skim milk) was 0.262 ± 0.005 mg/mL (≈ 791 µM). The “Solubility in Water at 25°C” value in series [2] is on record as “Practically Insoluble (≤ 0.1 mg/mL)^c”. The results for the “Log P” value in series [6] (pH 6.5) and in series [6] (pH 6.6) were -1.33 and 0.72, respectively. In addition, in series [4], the “Plasma Protein Binding” value was ~ 99%.

The values above are taken from article PMC10361461, “Evaluating the solubility of compounds intended for intramammary infusion based upon tests conducted across a range of milk matrices” (PLOS ONE, 2023).
